Source: patent US20230203064A1, “TRICYCLIC COMPOUNDS AS INHIBITORS OF NLRP3” (JANSSEN PHARMACEUTICA NV, priority 2020, published 2023)

Legend:
TNF = assay: PBMC assay: TNF cytokine level after LPS stimulation; format: cell-based; conditions: human PBMCs, 30 min pre-incubation, 100 ng/ml LPS for 6 hrs, supernatant, MSD technology
Method: (§1) Peripheral venous blood was collected from healthy individuals and human peripheral blood mononuclear cells (PBMCs) were isolated from blood by Ficoll-Histopaque (Sigma-Aldrich, A0561) density gradient centrifugation. After isolation, PBMCs were stored in liquid nitrogen for later use. Upon thawing, PBMC cell viability was determined in growth medium (RPMI media supplemented with 10% fetal bovine serum, 1% Pen-Strep and 1% L-glutamine). Compounds were spotted in a 1:3 serial dilution in DMSO and diluted to the final concentration in 30 μl medium in 96 well plates (Falcon, 353072). PBMCs were added at a density of 7.5×10^4 cells per well and incubated for 30 min in a 5% CO2 incubator at 37° C. LPS stimulation was performed by addition of 100 ng/ml LPS (final concentration, Invivogen, tirl-smips) for 6 hrs followed by collection of cellular supernatant and the analysis of IL-1β (μM) and TNF cytokines levels (μM) via MSD technology according to manufacturers' guidelines (MSD, K151A0H).
The IC50 values (for IL-1β) and EC50 values (TNF) were obtained on compounds of the invention/examples, and are depicted in the following table: […]

IL-1β = assay: PBMC assay: IL-1β release after LPS stimulation (NLRP3 inflammasome activity); format: cell-based; conditions: human PBMCs, 30 min pre-incubation, 100 ng/ml LPS for 6 hrs, supernatant, MSD technology
Method: as §1

Row | SMILES | EC50 (TNF) [µM] | IC50 (IL-1β) [nM] | melting point [°C]
1 | COCCN(C)c1nn(CC(=O)Nc2ccncn2)c(=O)c2cc3sccc3n12 [Final Cpd 3] | > 10 | 660 | 
2 | CN(C)c1nn(CC(=O)Nc2ccncn2)c(=O)c2cc3sccc3n12 [Final Cpd 7] | > 10 | < 120 | 
3 | CNc1nn(CC(=O)Nc2ccncn2)c(=O)c2cc3sccc3n12 [Final Cpd 5] | > 10 | 210 | 
4 | CNc1nn(CC(=O)Nc2ccncn2)c(=O)c2cc3scnc3n12 [Final Cpd 10] | > 10 | 270 | 263.5
5 | CCCN(C)c1nn(CC(=O)Nc2ccncn2)c(=O)c2cc3sccc3n12 [Final Cpd 4] | > 10 | 320 | 
6 | CN(C)c1nn(CC(=O)Nc2ccncn2)c(=O)c2cc3scnc3n12 [Final Cpd 2] | > 10 | < 120 | 248.3
7 | CCCN(C)c1nn(CC(=O)Nc2ccncn2)c(=O)c2cc3scnc3n12 [Final Cpd 8] | > 10 | 280 | 196.7
8 | CN(C)c1nn(CC(=O)N[C@H]2C[C@@](C)(O)C2)c(=O)c2cc3scnc3n12 [Final Cpd 9] | > 10 | < 120 | 221.7

Other lines, results leading:

Row | EC50 (TNF) [µM] | IC50 (IL-1β) [nM] | melting point [°C] | SMILES
9 | > 10 |  |  | CN(C)c1nn(CC(=O)N[C@H]2C[C@@](C)(O)C2)c(=O)c2cc3sccc3n12 [Final Cpd 11, 2-(5-(dimethylamino)-8-oxothieno[2′,3′:4,5]pyrrolo[1,2-d][1,2,4]triazin-7(8H)-yl)-N-((1s,3s)-3-hydroxy-3-methylcyclobutyl)acetamide]
10 | > 10 | 250 |  | CCN(C)c1nn(CC(=O)Nc2ccncn2)c(=O)c2cc3sccc3n12 [Final Cpd 6]
11 | 6.97 | 20 |  | CN(C)c1nn(CC(=O)Nc2ccc3nncn3n2)c(=O)c2cc3sc(Cl)cc3n12 [Final Cpd 12, N-([1,2,4]triazolo[4,3-b]pyridazin-6-yl)-2-(2-chloro-5-(dimethylamino)-8-oxothieno[2′,3′:4,5]pyrrolo[1,2-d][1,2,4]triazin-7(8H)-yl)acetamide]
12 | 8.56 | 360 | 214.8 | CCN(C)c1nn(CC(=O)Nc2ccncn2)c(=O)c2cc3scnc3n12 [Final Cpd 1, 2-[12-[ethyl(methyl)amino]-9-oxo-5-thia-1,3,10,11-tetrazatricyclo-[6.4.0.02,6]dodeca-2(6),3,7,11-tetraen-10-yl]-N-pyrimidin-4-yl-acetamide]
